# Test results published in US20060079453A1, “Hla binding peptides and their uses” (priority 2002, published 2006).
# Where two headings read alike, the source gives them in different places. No end group written: not given here.
# Experiments:
# Assay in all cases: biochemical
# Type in all cases: binding
# [1] = target: HLA-DR DRB1*0802 (DR8) (Homo sapiens, UniProt P01903+P01911, A100R/A103L/A169T/F76Y/H45Y/I96F/K41T/L162R/M171V/P40S/Q125H/Q178H/Q39Y/Q99D/R218S/R42G/S66Y/V115G/W38E)
# [2] = target: HLA-DR DRB1*0901 (DR9) (Homo sapiens, UniProt P01903+P01911, A100R/A103E/D57H/D86V/F55Y/F60I/F76Y/I96F/K127E/L162R/M171V/P40D/Q125H/Q99R/R33Q/R42F/S133A/S66N/T210M/V115G/W38K/Y107V/Y59G/Y89S)
# [3] = target: HLA-DR DRB1*0301 (DR3) (Homo sapiens, UniProt P01903+P01911, A100K/A102G/A103R/A169T/F55Y/I96L/K41T/L162R/M171V/P40S/Q125H/Q178H/Q39Y/R42S/S66N/T106N/T262R/W38E/Y61H)
# Sequence of HLA-DR DRB1*0301 (DR3) (P01903 26-254 limits assumed, other chains not shown): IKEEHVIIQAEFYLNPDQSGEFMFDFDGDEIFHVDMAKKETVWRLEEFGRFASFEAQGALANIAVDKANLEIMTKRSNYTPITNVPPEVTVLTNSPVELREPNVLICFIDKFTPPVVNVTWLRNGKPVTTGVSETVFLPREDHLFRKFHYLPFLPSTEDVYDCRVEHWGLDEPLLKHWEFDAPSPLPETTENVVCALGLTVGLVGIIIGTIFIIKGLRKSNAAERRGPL
# [4] = target: HLA-DR DRB1*1302 (DR13) (Homo sapiens, UniProt P01903+P01911, A100E/A169T/K41T/L162R/M171V/P40S/Q125H/Q178H/Q39Y/Q99D/R42S/S66N/T262R/V115G/W38E/Y61H)
# Sequence of HLA-DR DRB1*1302 (DR13) (P01903 26-254 limits assumed, other chains not shown): as above
# [5] = target: HLA-DR DRB1*1501 (DR15) (Homo sapiens, UniProt P01903+P01911)
# [6] = target: HLA-DR DRB5*0101 (DR51) (Homo sapiens, UniProt P01903+Q30154)
# [7] = target: HLA-DR DRB1*0701 (DR7) (Homo sapiens, UniProt P01903+P01911, A100R/A102G/A103Q/D57E/D86V/E43K/F76Y/K127E/L162R/M171V/P40G/Q125H/Q99D/R33Q/R42Y/R54Q/S133A/S66F/T210M/V115G/Y107V/Y59L/Y89S)
# [8] = target: HLA-DR DRB1*0401 (DR4) (Homo sapiens, UniProt P01903+P01911, A100K/A169T/F76Y/I96L/K127E/L162R/M171V/N62H/P40V/Q125Y/R42H/S133A/S149N/S66Y/V115G/V209L/W38E)
# [9] = target: HLA-DR DRB4*0101 (DR53) (Homo sapiens, UniProt P01903+P13762, G164S)
# [10] = target: HLA-DR DRB1*0101 (DR1) (Homo sapiens, UniProt P01903+P01911, A100R/D57E/F55L/F60I/F76Y/I96L/L162R/M171V/P40L/Q125E/R42F/V115G/Y59C)
# [11] = target: HLA-DR DRB1*1101 (DR11) (Homo sapiens, UniProt P01903+P01911, A100R/A169T/A87E/I96F/K41T/L162R/M171V/P40S/Q125H/Q178H/Q39Y/Q99D/R42S/S66Y/T262R/V115G/W38E)
# Sequence of HLA-DR DRB1*1101 (DR11) (P01903 26-254 limits assumed, other chains not shown): as above
# [12] = target: HLA-DR DRB3*0101 (DR52) (Homo sapiens, UniProt P01903+P79483)
Compound,IC50 [1],IC50 ([2]; DRB1 *0901),IC50 [3],IC50 ([5]; DRBI *1501),IC50 ([6]; DRB5 *0101),IC50 ([8]; DRB1 *0401),IC50 ([12]; read-out: DRB3 *0101),IC50 ([11]; read-out: DRB1 *1101),IC50 ([5]; read-out: DRBI *1501),further results
CC(C)C[C@H](NC(=O)[C@@H]1CCCN1C(=O)[C@H](Cc1c[nH]cn1)NC(=O)[C@@H]1CCCN1C(=O)[C@H](Cc1ccccc1)NC(=O)[C@H](CO)NC(=O)[C@H](Cc1c[nH]cn1)NC(=O)[C@H](CO)NC(=O)[C@@H](NC(=O)[C@H](CCC(N)=O)NC(=O)[C@H](Cc1ccccc1)NC(=O)[C@@H](NC(=O)[C@H](CCC(N)=O)NC(=O)CN)C(C)C)C(C)C)C(=O)N[C@@H](Cc1ccc(O)cc1)C(=O)O,0.548 µM,33 nM,45 µM,2170 nM,128 nM,8.2 nM,,,,IC50 ([4]; DRBI *1302): 146 nM; IC50 ([7]; DRB1 *0701): 27 nM
CC[C@H](C)[C@H](NC(=O)[C@H](CS)NC(=O)[C@H](Cc1c[nH]cn1)NC(=O)[C@H](C)NC(=O)[C@H](C)NC(=O)[C@@H](NC(=O)[C@H](CC(C)C)NC(=O)[C@@H](NC(=O)[C@H](Cc1c[nH]c2ccccc12)NC(=O)[C@H](CCC(N)=O)NC(=O)[C@@H]1CCCN1C(=O)[C@@H](N)Cc1c[nH]cn1)C(C)C)[C@@H](C)O)C(=O)N[C@@H](CCCNC(=N)N)C(=O)N[C@@H](CC(N)=O)C(=O)N[C@@H](CCCCN)C(=O)O,1.3 µM,107 nM,3.63 µM,6500 nM,40 nM,1620 nM,,,,IC50 ([9]; DRB4 *0101): 5520 nM; IC50 ([7]; DRB1 *0701): 283 nM; IC50 ([10]; DRB1 *0101): 13 nM
CC[C@H](C)[C@H](NC(=O)[C@@H](N)CCC(N)=O)C(=O)N[C@@H](Cc1ccc(O)cc1)C(=O)N[C@H](C(=O)N[C@@H](C)C(=O)N[C@@H](C)C(=O)N[C@@H](Cc1ccccc1)C(=O)N[C@H](C(=O)N[C@H](C(=O)N[C@@H](CCC(N)=O)C(=O)N[C@@H](C)C(=O)N[C@@H](C)C(=O)N[C@@H](C)C(=O)N[C@@H](CCC(=O)O)C(=O)N[C@H](C(=O)O)[C@@H](C)O)C(C)C)[C@@H](C)O)C(C)C,0.102 µM,65 nM,26.6 µM,252 nM,216 nM,1.6 nM,,,,IC50 ([11]; DRB1 *1101): 0.034 µM; IC50 ([9]; DRB4 *0101): 50 nM; IC50 ([7]; DRB1 *0701): 324 nM; IC50 ([10]; DRB1 *0101): 1.6 nM
CC[C@H](C)[C@H](NC(=O)[C@H](CCC(=O)O)NC(=O)[C@H](CC(N)=O)NC(=O)CNC(=O)[C@H](CC(=O)O)NC(=O)[C@H](CCC(=O)O)NC(=O)[C@H](CC(N)=O)NC(=O)[C@@H](NC(=O)[C@@H](NC(=O)[C@H](CO)NC(=O)[C@@H](NC(=O)[C@@H](N)Cc1ccc(O)cc1)[C@@H](C)CC)[C@@H](C)CC)[C@@H](C)CC)C(=O)N[C@@H](Cc1ccccc1)C(=O)N[C@@H](CC(N)=O)C(=O)N[C@H](C(=O)O)[C@@H](C)O,> 123 µM,83100 nM,0.397 µM,2710 nM,73000 nM,624 nM,,,,IC50 ([11]; DRB1 *1101): > 18.9 µM; IC50 ([4]; DRBI *1302): 346 nM; IC50 ([9]; DRB4 *0101): 3710 nM; IC50 ([7]; DRB1 *0701): 23700 nM
ALQAQKEAISPPDAA,,,,,,,> 91.7 µM,,,
AVGLPSIPVHPIGYY,,,,,,,> 11.8 µM,33.3 µM,518 nM,IC50 ([9]; read-out: DRB4 *0101): 5390 nM; IC50 ([6]; read-out: DRB5 *0101): 38500 nM
AWYAWRNRCK,,,,,,,> 11.1 µM,> 5 µM,,IC50 ([6]; read-out: DRB5 *0101): 44 nM
Ac-NPDAENWNSQFEILEDAA,,,,> 10000 nM,50000 nM,,,,,IC50 ([11]; DRB1 *1101): > 33.3 µM; IC50 ([4]; DRBI *1302): > 10000 nM; IC50 [12]: 1 µM
CAWTIVRVEILRNFY,43.7 µM,757 nM,3.56 µM,,,158 nM,,,,IC50 ([9]; DRB4 *0101): 152 nM; IC50 ([7]; DRB1 *0701): 746 nM; IC50 ([10]; DRB1 *0101): 66 nM
DDYVKQYTKQYTKQNTLKK,,,,,35 nM,160 nM,,,,IC50 ([11]; DRB1 *1101): > 1.11 µM; IC50 [12]: > 11.1 µM
DKAVSGLRSLTTLLR,16.4 µM,> 78900 nM,4.33 µM,60 nM,104 nM,1010 nM,,,,IC50 ([11]; DRB1 *1101): 0.052 µM; IC50 ([4]; DRBI *1302): 187 nM; IC50 ([9]; DRB4 *0101): 2010 nM; IC50 ([10]; DRB1 *0101): 13 nM
DSSLEGNYTLRVDCT,,,,,,,0.576 µM,> 50 µM,1200 nM,IC50 ([4]; read-out: DRBI *1302): 7.6 nM; IC50 ([6]; read-out: DRB5 *0101): 16800 nM
FAGIRRDGLLLRIVD,,,,,,,0.553 µM,,28 nM,
FPTIPLSRLFDNAML,,,,,,,121 µM,46.4 µM,2770 nM,IC50 ([4]; read-out: DRBI *1302): 9310 nM
FVNQHLTGSHLVEAL,,,,,,,94.5 µM,> 10.5 µM,799 nM,IC50 ([6]; read-out: DRB5 *0101): > 43300 nM
FYNQHLTGSHLVEAL,,,,,,,,,,IC50 ([1]; read-out: DRB1 *0802): > 54.4 µM; IC50 ([2]; read-out: DRB1 *0901): 41500 nM; IC50 ([3]; read-out: DRB1 *0301): 67.2 µM; IC50 ([7]; read-out: DRB1 *0701): 15 nM; IC50 ([8]; read-out: DRB1 *0401): 858 nM; IC50 ([10]; read-out: DRB1 *0101): 9.2 nM
GAAVVHEIVRSFGTL,,,,,,,,,,IC50 [12]: 0.788 µM
HQAISPRTLNSPAIF,,,,,,,> 83.3 µM,33.7 µM,8110 nM,IC50 ([9]; read-out: DRB4 *0101): 130 nM; IC50 ([6]; read-out: DRB5 *0101): > 200000 nM
